Data set [1] concerns NIH 3T3 cells. Briefly: UV-activated nanomechanical necrosis, live cell confocal microscopy, NIH 3T3. The class given is cell-based, mouse. As to conditions: for Time of Full Necrosis / Time of Initial Necrosis / % acceleration for full necrosis: 355 nm UV; for % acceleration for full necrosis: versus UV upon blank cells. How it is done: Following the synthetic bilipid vesicle experiments, nanomechanical action upon live cells was studied using confocal microscopy aided by a super-resolution technique called Phase Modulation Nanoscopy. Applicants used two experimental methods. In the first method (Method A), the molecular motors were loaded into the cell media and the imaging was initiated within 5 minutes to 24 hours. In the second method, (Method B), the molecular motors were loaded into the cell media, incubated for 30 minutes to 24 hours, and then washed three times with fresh molecular motor-free media before imaging. […]
(§1) Microscopy cells were seeded in untreated iBibi 100 μL live cell channels and allowed to grow to 40% to 60% confluence, at 37° C. in 5% CO2. At this stage, the medium was replaced and cells were treated with the studied nanomachines and co-stains as appropriate, with 0.1% DMSO (as detailed above) present in the final imaging medium. For live cell imaging, DMEM/F12 media (10% FBS) lacking phenol red was used from this point onwards. Following incubation, where Method B was used, the channels were washed with live cell imaging media and imaged using a purpose build incubator housing the microscope maintaining 37° C., 5% CO2 and 10% humidity.
(§2) All live cell imaging experiments used either NIH 3T3 mouse skin fibroblast cells, PC-3 cells, a grade 3 human prostate adenocarcinoma, or Chinese hamster ovary cells (CHO). These are all well-studied cell lines with discrete morphological compositions. Each molecular machine was used as a stock solution at 0.10 to 1.00 μM with total dimethyl sulfoxide (DMSO) concentrations not exceeding 0.1% in the final cell media in order to avoid unwanted cell membrane permeabilization, the DMSO being required for solubility of the organic nanomachines. All loading experiments are carried out in a light-suppressed manner and the possibility of induced or accelerated uptake due to interaction between the molecular motors and the applied co-stain has been eliminated using a series of individual and reversed loading experiments.
(§3) All experimental imaging parameters (i.e., laser beam size, confocal pinhole size, laser intensity, line scanning speed, scanning area (field of view, FOV), and line averaging sequences) were kept constant throughout the experiments. The accuracy and errors associated with the establishment of accelerated necrosis are determined based on one dual channel imaging sequence, which takes 15 seconds in total. This imaging sequence has been carefully established using untreated live cells.
Steady state fluorescence images were recorded using a PhMoNa enhanced Leica SP5 II LSCM equipped with a HCX PL APO 63×/1.40 NA LambdaBlue Oil immersion objective. As an initial control experiment to establish the UV-induced cell toxicity threshold, while mitigating voxel exposure and ensuring sufficient laser dwell time, an imaging sequence has been established to monitor cell morphological and physiological changes as a function of time. All experiments used cell-line-determined culture medium containing 0.1% DMSO.
The applied 100 Hz detection sequence was based on a bidirectional dual-channel continuous scanning method where a minimalistic non-damaging visible laser light (458 nm, 0.2 mW) is used in conjunction with the above detailed UV exposure. This is set as a 2 line/scan accumulation parallel acquisition sequence that is recorded as a function of time. Studied channels correspond to transmission images and UV-induced mitochondrial auto-fluorescence detected at 460 to 550 nm. Applicants further confirmed that the effectiveness of monitoring the UV-activated nanomechanical action on live cells using a conventional CW mercury-arc excitation source equipped with an epi-fluorescence setup consisting of a Zeiss Axiovert 200M inverted microscope, as discussed in FIGS. 18A-C. […]

Data set [2] concerns NIH 3T3 cells. Briefly: Uptake, localization and toxicity of fluorescent nanomachines without UV-light exposure. The data set is classed as cell-based, mouse. How it is done:
(§4) Following the synthetic bilipid vesicle experiments, nanomechanical action upon live cells was studied using confocal microscopy aided by a super-resolution technique called Phase Modulation Nanoscopy. Applicants used two experimental methods. In the first method (Method A), the molecular motors were loaded into the cell media and the imaging was initiated within 5 minutes to 24 hours. In the second method, (Method B), the molecular motors were loaded into the cell media, incubated for 30 minutes to 24 hours, and then washed three times with fresh molecular motor-free media before imaging.
Applicants first studied the effect of the nanomachines on the cells without UV-light exposure. […] However, due to 1 and 2 having well-pronounced visible fluorescence properties corresponding to the cy5 and BODIPY addends (FIGS. 5A-B and Table 1, respectively), their intracellular uptake, motion or protein/organelle-assisted trafficking are clearly observed. The two luminescent compounds display very different localization patterns.
Applicants undertook a series of control experiments to confirm active molecular motor uptake and suspected endocytosis, using a range of nanomachine loading concentrations (0.10-1.00 μM, Method A) and incubation times of 5-60 minutes at 4° C., which is a temperature of general endocytosis inhibition.

In another data set the test system is PC-3 cells. Nature of the data set: UV-activated nanomechanical necrosis, live cell confocal microscopy, PC-3. The data set is classed as cell-based, human. To be noted: for Time of Full Necrosis / Time of Initial Necrosis / % acceleration for full necrosis: 355 nm UV; for % acceleration for full necrosis: versus UV upon blank cells. The method, then: as §4
Next, Applicants used the smaller nanomachine, 3. Initial control experiments (blank) were performed without nanomachines being present. UV-induced (355 nm) PC-3 necrosis is not initiated until approximately scan 20 (corresponding to 300 second continuous scanning UV exposure, 400 nJ/voxel total dwell time), characterized by massive disruption and rupture of the mitochondrial network and subsequent well-pronounced auto-fluorescent signal detectable in the nucleoli and nucleus wall (FIG. 7A). This is observable by the nucleoli membrane permeabilization and DNA damage at the onset of necrosis. The UV-induced necrosis reaches final stages at approximately scan 40 (corresponding to 600 seconds) that is consistent with characteristic extracellular membrane rupture and homogenous cytosolic auto-fluorescence, indicating loss of cellular organelle boundaries.
as §1, §2, §3
Steady state fluorescence images were recorded using a PhMoNa enhanced Leica SP5 II LSCM equipped with a HCX PL APO 63×/1.40 NA LambdaBlue Oil immersion objective. As an initial control experiment to establish the UV-induced cell toxicity threshold, while mitigating voxel exposure and ensuring sufficient laser dwell time, an imaging sequence has been established to monitor cell morphological and physiological changes as a function of time. All experiments used cell-line-determined culture medium containing 0.1% DMSO. […]

For a further data set, the system named is HEK293 cells. Nature of the data set: Whole cell patch clamp electrophysiology. The class given is cell-based, human. How it is done: FIGS. 16A-B show whole-cell patch clamp studies of the dynamic effects of UV-induced molecular mechanical action of compound 3 upon HEK293 cells. Also shown are control studies using compound 3 without UV activation, UV-exposed rotor-free control molecule 5, and no molecular additives x. Compounds 3 and 5 were used at 1.0 μM concentrations. […] Similarly, the rotor-free compound 5, and no molecular additive x, show no inward currents during UV illumination (center two traces). Cells were held at −70 mV in voltage clamp mode and UV exposure began 15 seconds after the start of the recording. Each recording is a biological replicate and all traces are shown (n=4 recordings from different cells for 3+UV; n=3 recordings from different cells for each other condition). […] The white arrows (lower right image) highlight membrane blebbing that appears only in the cells treated with UV-activated compound 3. The scale bar represents 10 μm and is applicable for each micrograph.
The dynamic effects of nanomechanical action upon cellular membranes were then studied through the whole cell patch clamp electrophysiology of human embryonic kidney 293 cells (HEK293) commonly used for electrophysiological interrogation. […] These inward currents were not observed in the absence of UV illumination or during UV illumination of non-rotor-bearing control 5 or UV illumination of untreated cells (FIG. 16A).
(In general: In patch-clamp work, channel activity is measured electrically.)

The mark [3] stands for this setting: NIH 3T3, Method B (washed three times).
The mark [4] stands for this setting: PC-3, Method B (washed three times).

From US11565003B2, “Mechanical opening of lipid bilayers by molecular nanomachines” (William Marsh Rice University, priority 2016, dated 2023) come the findings set out here.

The structures appear in SMILES notation.

As to `CC1=CC(C)=[N+]2C1=C(c1ccccc1C(=O)OCc1cn(CCC#Cc3ccc4c(c3)C(=C3c5c(ccc6ccccc56)C[C@H]3C)c3cc(C#CCCn5cc(COC(=O)c6ccccc6C6=C7C(C)=CC(C)=[N+]7[B-](F)(F)n7c(C)cc(C)c76)nn5)ccc3S4)nn1)c1c(C)cc(C)n1[B-]2(F)F` (racemic) [Compound 2], the “Time of Full Necrosis” value in the data set with NIH 3T3 cells [1] (NIH 3T3, Method A (no washing)) is 585 s; in the data set with NIH 3T3 cells [1] (setting [3]), 570 s. Further, the “Time of Initial Necrosis” value in the data set on NIH 3T3 cells [1] (NIH 3T3, Method A (no washing)) turned out to be 300 s; in the data set with NIH 3T3 cells [1] (setting [3]) it was 300 s. Besides, the “% acceleration for full necrosis” value in the data set on NIH 3T3 cells [1] (NIH 3T3, Method A) is listed as 2.5%; in the data set on NIH 3T3 cells [1] (NIH 3T3, Method B) it was 5%. In the data set on NIH 3T3 cells [2] (NIH 3T3, 0.10-1.00 μM, 5-60 minutes, 4° C.), the “localized fluorescence at 4° C. (endocytosis inhibition) (in words)” value is recorded as “no detectable localized fluorescence”. Further, the “intracellular localization without UV (in words)” value in the data set on NIH 3T3 cells [2] (NIH 3T3, Method A, 0.10-1.00 μM) was “enters the cell and localizes in the mitochondria”. In addition, the “necrosis without UV-light exposure (in words)” value in the data set with NIH 3T3 cells [2] (NIH 3T3, Method A, no UV) is “do not induce accelerated necrosis”. For the same compound, the “toxicity in the applied time and concentration regimes (in words)” value in the data set with NIH 3T3 cells [2] (NIH 3T3, no UV) was “non-toxic”.

In the case of `Cc1ccc(S(=O)(=O)OCCC#Cc2ccc3c(c2)C(=C2c4c(ccc5ccccc45)C[C@H]2C)c2cc(C#CCCOS(=O)(=O)c4ccc(C)cc4)ccc2S3)cc1` (racemic) [Compound 4], the “Time of Full Necrosis” value with NIH 3T3 cells [1] (NIH 3T3, Method A (no washing)) is 540 s; in the data set on PC-3 cells (PC-3, Method A (no washing)) it was 540 s. The “Time of Initial Necrosis” value with NIH 3T3 cells [1] (NIH 3T3, Method A (no washing)) is 270 s; in the data set with PC-3 cells (PC-3, Method A (no washing)), 270 s. Also, the “% acceleration for full necrosis” value with NIH 3T3 cells [1] (NIH 3T3, Method A) was 10%; with PC-3 cells (PC-3, Method A) it was 10%.

For the compound `C[C@@H]1CSc2ccc3ccccc3c2C1=C1c2cc(C#CCCO)ccc2Sc2ccc(C#CCCO)cc21` (racemic) [Compound 6, reference compound], in the data set with NIH 3T3 cells [1] (NIH 3T3, Method A), the “effect on necrosis upon standardized UV-exposure (in words)” value (from here on “effect”) was “no enhanced necrosis” and the “% acceleration for full necrosis” value came to 0%. For the same compound, in the data set on NIH 3T3 cells [1] (NIH 3T3, Method A (no washing)), the “Time of Full Necrosis” value was 615 s and the “Time of Initial Necrosis” value is on record as 300 s. Further, in the data set on PC-3 cells (PC-3, Method A), the “effect” value is given as “no enhanced necrosis” and the “% acceleration for full necrosis” value stood at 0%. In the data set with PC-3 cells (PC-3, Method A (no washing)), the “Time of Full Necrosis” value came out at 600 s and the “Time of Initial Necrosis” value was 300 s.

For the compound `O=c1c2cc(C#CCCO)ccc2sc2ccc(C#CCCO)cc12` [Compound 5, reference compound], the “effect” value in the data set on NIH 3T3 cells [1] (NIH 3T3, Method A) is on record as “no effect on necrosis”; in the data set with PC-3 cells (PC-3, Method A), “no effect on necrosis”. Also, the “Time of Full Necrosis” value stood at 600 s in the data set on NIH 3T3 cells [1] (NIH 3T3, Method A (no washing)) and 600 s in the data set with PC-3 cells (PC-3, Method A (no washing)). Besides, the “Time of Initial Necrosis” value was determined as 300 s in the data set with NIH 3T3 cells [1] (NIH 3T3, Method A (no washing)) and 300 s in the data set with PC-3 cells (PC-3, Method A (no washing)). In addition, the “% acceleration for full necrosis” value in the data set with NIH 3T3 cells [1] (NIH 3T3, Method A) is reported as 0%; in the data set with PC-3 cells (PC-3, Method A) it was 0%. Also, the “membrane currents without UV illumination (in words)” value in the data set with HEK293 cells (HEK293, 1.0 μM, 4 minute recording, no UV) is “no change in membrane currents”. In the data set on HEK293 cells (HEK293, Method B, UV 355 nm, 1.0 μM), the “inward ionic currents during UV illumination (in words)” value is “not observed”.

`C[C@@H]1Cc2ccc3ccccc3c2C1=C1c2cc(C#CCCn3cc(CCC(=O)N[C@@H](CC(=O)O)C(=O)NCC(=O)N[C@@H](CCC(=O)O)C(=O)N[C@@H](C)C(N)=O)nn3)ccc2Sc2ccc(C#CCCn3cc(CCC(=O)N[C@@H](CC(=O)O)C(=O)NCC(=O)N[C@@H](CCC(=O)O)C(=O)N[C@@H](C)C(N)=O)nn3)cc21` [Compound 7]: the “Time of Full Necrosis” value amounted to 390 s with NIH 3T3 cells [1] (NIH 3T3, Method A (no washing)); 390 s in the data set on NIH 3T3 cells [1] (setting [3]); 360 s in the data set on PC-3 cells (PC-3, Method A (no washing)); 390 s with PC-3 cells (setting [4]). In addition, the “Time of Initial Necrosis” value came out at 150 s in the data set on NIH 3T3 cells [1] (NIH 3T3, Method A (no washing)); 165 s with NIH 3T3 cells [1] (setting [3]); 165 s in the data set on PC-3 cells (PC-3, Method A (no washing)); 180 s in the data set with PC-3 cells (setting [4]). Besides, the “% acceleration for full necrosis” value in the data set with NIH 3T3 cells [1] (NIH 3T3, Method A) is 40%; in the data set on NIH 3T3 cells [1] (NIH 3T3, Method B) it was 40%; in the data set with PC-3 cells (PC-3, Method A), 35%; in the data set on PC-3 cells (PC-3, Method B), 35%. Also, the “selectivity for targeted PC-3 cells over non-targeted control cells (in words)” value in the data set with PC-3 cells (NIH 3T3 and CHO as non-targeted controls) is “No selectivity was observed”.

Regarding `OCCC#Cc1ccc2c(c1)C(=C1CCc3ccc4ccccc4c31)c1cc(C#CCCO)ccc1S2` [NonMe-3, reference compound], in the data set on PC-3 cells (PC-3, Method A (no washing)), the “Time of Full Necrosis” value was found to be 540 s and the “Time of Initial Necrosis” value came to 270 s. In addition, in the data set on PC-3 cells (PC-3, Method A), the “% acceleration for full necrosis” value came out at 10%. Further, the “effect” value in the data set with PC-3 cells (PC-3, Method A, listed as compound analogous to 3 but without the allylic methyl) is reported as “only slightly faster than the motor-free system”. The “effect” value with PC-3 cells (PC-3, Method A, listed as demethylated 3) is listed as “slowed necrosis”.
